Laboratory results as given in PMC4549624 (Scientific Reports, 2015).
Where two headings read alike, the source gives them in different places.

Key:
[1] = system: KCNQ1; conditions: cited from earlier work
[2] = biological target: KCNE1 (human) (UniProt P15382)
[3] = biological target: KCNE1-R32D (human) (UniProt P15382)

CCS(=O)(=O)N(C)[C@H]1c2cc(C#N)ccc2OC(C)(C)[C@@H]1O (racemic) [chromanol 293B]
effect on KCNQ1 [1]: inhibit the channel

SSD609 (peptide)
current of wild-type KCNQ1/KCNE1 left under SSD609 in transfected CHO cells, whole-cell patch clamp (reference of the R32D mutant) [2]: 30% | current of KCNQ1/KCNE1-R32D left under SSD609 in transfected CHO cells, whole-cell patch clamp [3]: < 10%

O=C(Nc1cc(C(F)(F)F)ccc1O)Nc1cc(C(F)(F)F)ccc1O [NS1643]
effect on KCNQ1 ([1]; binds to KCNQ1, in words): enhance the channel conductance

COc1ccc(-c2csc(NC(=O)[C@H]3CCCCN3S(=O)(=O)c3ccc(C)cc3)n2)cc1 [ML277]
effect on KCNQ1 ([1]; binds to side pocket in KCNQ1, especially KCNE1-free side pocket, in words): enhance the amplitude of the KCNQ1 current
